No end group written: not given here.
System: antibodies specific to TPA (prepared by using natural cancer antigen, CAPA or TPA)
Test: hemagglutination inhibition test
Format: binding
Conditions: for immunological activity after coupling to inert albumin: coupled to inert bovine albumin, molar ratio about 1:1, by water soluble carbodiimide (EDC)
Description: The polypeptide prepared according to the foregoing was investigated with regard to its ability to inhibit the hemagglutination reaction between tanned red sheep blood cells labelled with natural cancer antigen and antibodies prepared by using natural cancer antigen (CAPA or TPA). With regard to details concerning this technique reference is had to the above-identified Swedish patent application 73-08917-9 and U.S. Pat. No. 3,960,827. […] Said Unit for specific activity is defined as 1/6 of the quantity active polypeptide required to label 10^9 sheep blood cells so as to be fully agglutinated by a minimum number or amount of antibodies (maximum dilution of antibodies).
In Example 1 as described above the antigenic activity of the synthesized polypeptide was determined in the following manner.
For quantitative determination of the amount of polypeptide 7 mgs of the peptide are dissolved in 1.4 mls of buffer grade serum, i.e. a physiological saline solution containing 2% of inert human serum and buffered to a pH of about 7.5 with a phosphate buffer. Under serial dilution a series of samples of said solution having a decreasing polypeptide concentration is prepared and to each of said samples there is added a pre-determined amount of anti-serum containing antibodies specific to TPA. To each of the resulting samples there is then added, after incubation, a predetermined amount of the polypeptide carried on a particulate carrier, hemagglutination taking place to an extent corresponding to the amount of available antibodies. In parallel there is prepared a corresponding series of control samples containing known decreasing amounts of TPA. The diameters of the hemagglutination depositions of the control samples are then measured in their respective cavities on a serial dilution test plate, and the values of the diameters obtained are plotted against the TPA concentrations, an S-shaped curve being obtained, the intermediate part of which including an inflexion point as a steep inclination. The corresponding curve of the diameter of the depositions from the hemagglutination as a function of the TPA-concentrations is shown in the diagram of the appended drawing, as curve B.
In the same diagram the corresponding curve for the synthesized polypeptide is shown as A, and with knowledge of the specific activity of the TPA the specific activity of the synthesized polypeptide is found to be 0.024 Units per milligram of peptide.

Sequence: ALLNDELAQYLDLVRALEAANGQLEV [Example 1]
- activity lowered (basic environment only, pH 13, same period of time, no cyclohexanedione): about 20%
- loss of activity (centrally positioned arginine A0 blocked with cyclohexanedione at pH 13): 99.5%
- specific activity (inhibition of hemagglutination between tanned red sheep blood cells labelled with natural cancer antigen and anti-TPA antibodies, compared with the TPA control curve): 0.024 U/mg
- activity disappears (treated with iodine at pH 9.5, 100 times excess): 40-50%
- activity lost (treated with iodine at pH 9.5, 1000 times excess): about 75%
- activity lost (treated with iodine at pH 9.5, excess of about 10000 times in relation to tyrosine content): about 85%
- activity of the polypeptide (treated with iodine at pH 9.5, excess of only about 10 times): not effected

Sequence: ALLNDILAQYLDLVRALEAANGRLEV [Example 25]
- immunological activity compared with the polypeptide of Example 1: about equally immunologically active

Sequence: AQYLDLVRALEAANGELEV [Example 3, Ala Gln Tyr Leu Asp Leu Val Arg Ala Leu Glu Ala Ala Asn Gly Glu Leu Glu Val]
- immunological activity compared with the polypeptide of Example 1: about equally immunologically active
- immunological activity after coupling to inert albumin: maintained

Sequence: DDRLAKYLDKVRALEAADG [Example 6, Asp Asp Arg Leu Ala Lys Tyr Leu Asp Lys Val Arg Ala Leu Glu Ala Ala Asp Gly]
- immunological activity compared with the polypeptide of Example 1: about equally immunologically active

Sequence: LNDELAQYLDLVRALEAANGRLEV [Example 4]
- immunological activity compared with the polypeptide of Example 1: about equally immunologically active
- immunological activity after coupling to inert albumin: maintained

Sequence: NDILAQYLDLVRALEAANG [Example 5, Asn Asp Ile Leu Ala Gln Tyr Leu Asp Leu Val Arg Ala Leu Glu Ala Ala Asn Gly]
- immunological activity compared with the polypeptide of Example 1: about equally immunologically active

Sequence: TDLDDRLAKYLDKVRALEAADGELEV [Example 2]
- immunological activity compared with the polypeptide of Example 1: about equally immunologically active
